The text below walks through data of patent publication US20090252814A1, “USE OF XENON FOR ORGAN PROTECTION” (priority 2005, published 2009).

One data set deals with PHD2. Briefly: PHD2 expression in adult mice brains (western blot). It is filed as in vivo, C57BL/6J mice. Particulars: 75% xenon and 25% oxygen 2 h, harvested 0-48 h after. The method, then:
Studies were performed on 8- to 12-wk-old C57BL/6J mice (Jackson Labs, Bar Harbor, Me.) that were fed a standard laboratory diet. All procedures were approved by the Home Office.
The mice were exposed to 75% xenon and 25% oxygen for two hours. The xenon gas was administered to the mice by inhalation. The brains of said adult mice were then harvested as described below between 0-48 hours after exposure to the xenon gas.
The tissues were homogenised and western blots of adult mice brain samples were carried out as described in Example 1.
The primary antibody was monoclonal mouse anti-PHD2 antibody.
(A western blot detects proteins with antibodies after separation by electrophoresis.)

The subject of a further data set is HIF-1α. The data set is described as follows: HIF-1α expression in neonatal rat brain after xenon (immunohistochemistry and western blot). It is filed as in vivo, Sprague Dawley rats. The protocol:
Studies were performed on Sprague Dawley, 7 day old rats. All procedures were approved by the Home Office.
The rats were exposed to 75% xenon for two hours. The xenon gas was administered to the rats by inhalation. The brains of said rats were then harvested, as described below, between 0-24 hours after exposure to the xenon gas.
Paraffin sections (4 μm) were dewaxed in xylene, rehydrated in a series of ethanol washes, and placed in distilled water before staining procedures. Slides were coated with 3-aminopropyl-tri-ethoxysylane.
For detection of HIF isoforms, monoclonal mouse anti-human HIF-1α antibody (67; Novus Biologicals, Littleton, Colo.) and polyclonal rabbit anti-mouse HIF-2α antibodies (PM8 and PM9, obtained from two different rabbits immunised with a peptide containing amino acids 337 to 439 of mouse HIF-2) were used. PM8 and PM9 were provided by Prof. P H Maxwell, Renal Section, Imperial College London, Hammersmith Campus, Du Cane Road, London, W12 ONN. Specific staining of each HIF-isoform was confirmed in immunoblots by using in vitro transcribed and translated mouse HIF-1 and HIF-2 (TnT T7; Promega, Madison, Wis.) and homogenates of rat endothelial cells.
For immunohistochemical analyses, antibody 67 was used at a dilution of 1:6000 and antibodies PM8 and PM9 were used at dilutions of 1:3000.
Detection of bound antibodies was performed by using biotinylated secondary anti-mouse or anti-rabbit antibodies and a catalysed signal amplification system (Dako, Hamburg, Germany) based on the streptavidin-biotin-peroxidase reaction, according to the instructions provided by the manufacturer. Antigen retrieval was performed for 90 seconds in preheated Dako target retrieval solution, using a pressure cooker. All incubations were performed in a humidified chamber. Between incubations, specimens were washed two to four times in buffer (50 mM Tris-HCl, 300 mM NaCl, 0.1% Tween-20, pH 7.6). […]

For data set [1] the following is noted: xenon gas; cited from earlier work.

`[Xe]` [xenon]: in the data set on PHD2, the “expression of PHD2” value was “time-dependent reduction”. Moreover, the “expression of HIF-1α and HIF-1β in pyramidal cells in the hippocampus” value with HIF-1α (6 hours after exposure to 75% xenon, immunohistochemistry) is reported as “induces expression”. Also, the “HIF-1α positive cells in cortex” value with HIF-1α (6 hrs after 2 h exposure to 75% xenon, immunohistochemistry) was “clearly detected”. Besides, the “HIF-1α expression in the brain” value in the data set on HIF-1α (7 day old rats, 75% xenon 2 h, brains harvested 0-24 h after, western blot) is given as “time-dependent increase”. Moreover, the “specific gravity or density” value in data set [1] is 5.887 g/L.
